Data on five compounds can be found in patent US8841413B2, “Antidiabetic compounds” (Cadila Healthcare Limited, priority 2006, dated 2014).

The subject of data set [1] is RIN5F (Rat Insulinoma) cells. Nature of the data set: In vitro glucose-dependent insulin secretion (RIN5F cell assay). The class given is cell-based. Conditions: 16.7 mM glucose load, mean ± S.D., n = 3. Here is the method: After trypsinization, RIN5F cells were seeded at a concentration of 0.2×10^6·cells per well, in 12 well plates.
The supernatant was collected and the insulin amount was measured by ultra sensitive Rat insulin ELISA kit (Crystal Chem, Ill.). The protein was estimated in the supernatant using Bicinchoninic Acid kit, according to the manufacturer's protocol (Sigma Aldrich, Mo.). The total insulin content obtained in Pico-gram (pg) was divided with the total protein (μg) in order to normalize for differences in cell density between wells.

The target of another data set is T1, human glucagon receptor (Homo sapiens, UniProt P47871).
T1 construct: The full-length cDNA was cloned in pcDNA3.1(Invitrogen); expressed in transfected cells
T1 sequence (P47871 26-477): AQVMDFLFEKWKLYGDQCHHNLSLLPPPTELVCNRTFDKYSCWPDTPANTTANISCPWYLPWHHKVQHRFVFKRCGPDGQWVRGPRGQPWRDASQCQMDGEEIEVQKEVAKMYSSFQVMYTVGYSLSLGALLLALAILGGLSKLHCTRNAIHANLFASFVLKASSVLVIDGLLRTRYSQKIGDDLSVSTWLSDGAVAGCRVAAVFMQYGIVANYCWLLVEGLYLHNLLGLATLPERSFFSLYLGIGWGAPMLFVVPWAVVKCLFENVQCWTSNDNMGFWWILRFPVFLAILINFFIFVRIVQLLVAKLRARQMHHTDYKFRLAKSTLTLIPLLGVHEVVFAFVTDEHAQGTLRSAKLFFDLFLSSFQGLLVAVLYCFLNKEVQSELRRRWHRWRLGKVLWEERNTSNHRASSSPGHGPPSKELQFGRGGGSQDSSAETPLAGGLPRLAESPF
Put plainly: In vitro human glucagon antagonist activity (inhibition of cAMP production), CHO/human glucagon R cells. The class given is cell-based.

The target of another data set is DPP IV (Homo sapiens, UniProt P27487). Nature of the data set: Stability against DPP IV enzyme. The class given is in vitro ADME. The following applies: for % degradation in 24 h when incubated with DPP-IV enzyme: 2 μM, 37° C.; for half-life at 2 μM: DPP IV enzyme, pH 7.8, 37° C., read-out: half-life (t1/2) with DPP-IV enzyme. An outline of the steps:
(§1)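 Acidic quench (10% v/v TFA/H2O) preceded reversed-phase chromatography monitored at 206 nm, with fractions confirmed by ESI-MS.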

The nature of data set [2]: Stability in human plasma. The class given is in vitro ADME. The following applies: for half-life at 2 μM: human, pooled human plasma, pH 7.8, 37° C., read-out: half-life (t1/2) in human plasma. An outline of the steps:
as §1

Data set [3] is described as follows: Stability in simulated gastric fluid. The class given is in vitro ADME. Conditions: 37° C., pH 1.5, pepsin; for % degradation in 24 h when incubated with simulated gastric fluid / half-life (t1/2) in simulated gastric fluid: 2 μM. An outline of the steps: as §1
Data set [4] can be described thus: Stability in simulated intestinal fluid. The class given is in vitro ADME. Conditions: 37° C.; for % degradation in 24 h when incubated with simulated intestinal fluid / half-life (t1/2) in simulated intestinal fluid: 2 μM, pH 7.5. An outline of the steps: as §1
Data set [5] in a line: Stability against liver microsomes. The following applies: for % degradation in 24 h when incubated with liver microsomes: 2 μM, 37° C.; for half-life at 2 μM: human, human liver microsomes, pH 7.8, 37° C., read-out: half-life (t1/2) with liver microsomes. The class given is in vitro ADME, human. The method, boiled down: as §1
Background: Microsomes from liver hold many membrane-bound enzymes, among them those of drug oxidation.

The mark [6] stands for this setting: 1 nM test compound (fourth concentration column, between 100 nM and 10 μM) with saturated concentration of glucagon peptide.
[7] abbreviates: 1 nM test compound with saturated concentration of glucagon peptide.
Where [8] appears, read: 10 nM test compound with saturated concentration of glucagon peptide.
The mark [9] stands for this setting: 100 nM test compound with saturated concentration of glucagon peptide.
Where [10] appears, read: 10 μM test compound with saturated concentration of glucagon peptide.

DPP IV, sequence (P27487 whole entry, species assumed): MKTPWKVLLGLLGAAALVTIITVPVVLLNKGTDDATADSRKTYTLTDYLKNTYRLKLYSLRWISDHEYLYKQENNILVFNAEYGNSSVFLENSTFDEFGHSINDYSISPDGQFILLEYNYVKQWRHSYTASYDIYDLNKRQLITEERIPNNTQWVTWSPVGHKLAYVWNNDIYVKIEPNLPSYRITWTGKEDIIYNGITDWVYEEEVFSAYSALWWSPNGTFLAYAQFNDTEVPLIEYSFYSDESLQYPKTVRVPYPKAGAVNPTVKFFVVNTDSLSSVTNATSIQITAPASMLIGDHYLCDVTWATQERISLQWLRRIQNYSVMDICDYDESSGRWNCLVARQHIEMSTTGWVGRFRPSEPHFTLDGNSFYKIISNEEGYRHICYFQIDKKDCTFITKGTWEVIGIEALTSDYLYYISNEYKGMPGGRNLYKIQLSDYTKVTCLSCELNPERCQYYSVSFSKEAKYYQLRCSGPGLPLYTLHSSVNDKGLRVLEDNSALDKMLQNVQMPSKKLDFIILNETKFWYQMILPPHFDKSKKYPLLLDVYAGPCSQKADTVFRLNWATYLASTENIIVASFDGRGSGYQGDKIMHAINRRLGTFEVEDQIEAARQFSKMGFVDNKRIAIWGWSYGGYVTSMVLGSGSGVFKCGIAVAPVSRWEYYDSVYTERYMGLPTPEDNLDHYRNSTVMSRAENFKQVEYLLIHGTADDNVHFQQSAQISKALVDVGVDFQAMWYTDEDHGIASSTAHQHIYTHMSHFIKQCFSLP

In the case of `CCc1cc(OC)ccc1-c1ccc(CC(NC(=O)[C@H](CC(=O)O)NC(=O)[C@H](CO)NC(=O)[C@@H](NC(=O)[C@H](Cc2ccccc2)NC(=O)[C@@H](NC(=O)CNC(=O)[C@H](CCC(N)=O)NC(=O)[C@H](C)NC(=O)[C@@H](N)Cc2c[nH]cn2)[C@@H](C)O)[C@@H](C)O)C(=O)NC(Cc2ccc(-c3ccccc3C(F)(F)F)cc2)C(N)=O)cc1` (single isomer, unassigned) [compound 12], the results for the Insulin secretion in data set [1] (0.1 nM test compd.), in data set [1] (1 nM test compd.) and in data set [1] (10 nM test compd.) were 12.9 ± 0.14 pg/µg/h, 15.8 ± 0.13 pg/µg/h and 29.9 ± 0.15 pg/µg/h, respectively. The “Human Glucagon receptor antagonistic activity, inhibition of cAMP production of Glucagon peptide” value stood at 0 pmol/ml/μg prt on human glucagon receptor (setting [6]); 5 ± 0.09 pmol/ml/μg prt at human glucagon receptor (setting [7]); 3 ± 0.11 pmol/ml/μg prt on human glucagon receptor (setting [8]); 0 pmol/ml/μg prt at human glucagon receptor (setting [9]); 0 pmol/ml/μg prt at human glucagon receptor (setting [10]). Further, the “% degradation in 24 h when incubated with DPP-IV enzyme” value (from here on “% degradation … with DPP-IV enzyme”) at DPP IV turned out to be 72%. In addition, the “half-life (t1/2) in human plasma” value in data set [2] (2 μM, 37° C.) is reported as “(9) h”. In addition, in data set [2] (2 μM, 37° C.), the “% degradation in 24 h when incubated with human plasma” value (“% degradation … with human plasma” for short) is on record as 70%. Also, in data set [3], the “% degradation in 24 h when incubated with simulated gastric fluid” value (“% degradation … with simulated gastric fluid” below) is reported as 100%. Moreover, the half-life at 2 μM is 0.5 h in data set [3] (simulated gastric fluid with pepsin, read-out: half-life (t1/2) in simulated gastric fluid); 0.5 h in data set [4] (simulated intestinal fluid, pH 7.5, read-out: half-life (t1/2) in simulated intestinal fluid); 0.5 h in data set [5]. Also, the “% degradation in 24 h when incubated with simulated intestinal fluid” value (from here on “% degradation … with simulated intestinal fluid”) in data set [4] was 100%. Also, the “% degradation in 24 h when incubated with liver microsomes” value (from here on “% degradation … with liver microsomes”) in data set [5] is listed as 100%.
For `CCc1cc(OC)ccc1-c1ccc(CC(NC(=O)[C@H](CC(=O)O)NC(=O)[C@H](CO)NC(=O)[C@@H](NC(=O)C(C)(Cc2ccccc2F)NC(=O)[C@@H](NC(=O)CNC(=O)[C@H](CCC(N)=O)NC(=O)[C@H](CO)NC(=O)[C@@H](N)Cc2c[nH]cn2)[C@@H](C)O)[C@@H](C)O)C(=O)NC(Cc2ccc(-c3ccccc3C)cc2)C(N)=O)cc1` (single isomer, unassigned) [compound 21], the values for the Insulin secretion in data set [1] (0.1 nM test compd.), in data set [1] (1 nM test compd.) and in data set [1] (10 nM test compd.) were 12.3 ± 0.33 pg/µg/h, 14.1 ± 0.36 pg/µg/h and 28.0 ± 0.16 pg/µg/h, respectively. Also, the “Human Glucagon receptor antagonistic activity, inhibition of cAMP production of Glucagon peptide” value on human glucagon receptor (setting [6]) turned out to be 14 ± 0.02 pmol/ml/μg prt; at human glucagon receptor (setting [7]), 19 ± 0.03 pmol/ml/μg prt; on human glucagon receptor (setting [8]), 17 ± 0.08 pmol/ml/μg prt; at human glucagon receptor (setting [9]) it was 15 ± 0.01 pmol/ml/μg prt; at human glucagon receptor (setting [10]), 12 ± 0.11 pmol/ml/μg prt. Also, the “% degradation … with DPP-IV enzyme” value on DPP IV was found to be 76%. In addition, the half-life at 2 μM at DPP IV was 9 h; in data set [2] it was 8 h; in data set [5] it was 1 h. Besides, the “% degradation … with human plasma” value in data set [2] (2 μM, 37° C.) was 78%. In addition, the “% degradation … with simulated gastric fluid” value in data set [3] is listed as 12%. Also, in data set [3], the “half-life (t1/2) in simulated gastric fluid” value is “(8) h”. Moreover, the “% degradation … with simulated intestinal fluid” value in data set [4] was 55%. In addition, in data set [4], the “half-life (t1/2) in simulated intestinal fluid” value is “(6) h”. Besides, the “% degradation … with liver microsomes” value in data set [5] was found to be 79%.
For the compound `CCc1cc(OC)ccc1-c1ccc(CC(NC(=O)[C@H](CC(=O)O)NC(=O)[C@H](CO)NC(=O)[C@@H](NC(=O)C(C)(Cc2ccccc2F)NC(=O)[C@@H](NC(=O)CNC(=O)[C@H](CCC(N)=O)NC(=O)[C@H](CO)NC(=O)[C@@H](N)Cc2c[nH]cn2)[C@@H](C)O)[C@@H](C)O)C(=O)NC(Cc2ccc(-c3ccccc3C)nc2)C(N)=O)cc1` (single isomer, unassigned) [compound 22], the Insulin secretion in data set [1] (0.1 nM test compd.) was 12.1 ± 0.42 pg/µg/h; in data set [1] (1 nM test compd.), 14.6 ± 0.41 pg/µg/h; in data set [1] (10 nM test compd.), 27.8 ± 0.46 pg/µg/h. Also, the “Human Glucagon receptor antagonistic activity, inhibition of cAMP production of Glucagon peptide” value turned out to be 18 ± 0.03 pmol/ml/μg prt on human glucagon receptor (setting [6]); 21 ± 0.11 pmol/ml/μg prt on human glucagon receptor (setting [7]); 19 ± 0.02 pmol/ml/μg prt on human glucagon receptor (setting [8]); 18 ± 0.07 pmol/ml/μg prt at human glucagon receptor (setting [9]); 16 ± 0.02 pmol/ml/μg prt at human glucagon receptor (setting [10]). For the same compound, the “% degradation … with DPP-IV enzyme” value at DPP IV turned out to be 75%. Also, the half-life at 2 μM turned out to be 9 h on DPP IV, 8 h in data set [2] and 1 h in data set [5]. The “% degradation … with human plasma” value in data set [2] (2 μM, 37° C.) is recorded as 77%. The “% degradation … with simulated gastric fluid” value in data set [3] is 14%. Moreover, the “half-life (t1/2) in simulated gastric fluid” value in data set [3] is listed as “(8) h”. In data set [4], the “% degradation … with simulated intestinal fluid” value is 45%. For the same compound, the “half-life (t1/2) in simulated intestinal fluid” value in data set [4] is given as “(6) h”. Also, the “% degradation … with liver microsomes” value in data set [5] was determined as 81%.
As for `CCc1cc(OC)ccc1-c1ccc(CC(NC(=O)[C@H](CC(=O)O)NC(=O)[C@H](CO)NC(=O)[C@@H](NC(=O)C(C)(Cc2ccccc2F)NC(=O)[C@@H](NC(=O)CNC(=O)[C@H](CCC(N)=O)NC(=O)[C@H](CO)NC(=O)[C@@H](N)Cc2c[nH]cn2)[C@@H](C)O)[C@@H](C)O)C(=O)NC(Cc2ccc(-c3ccccc3F)cc2)C(N)=O)cc1` (single isomer, unassigned) [compound 23], the Insulin secretion in data set [1] (0.1 nM test compd.) came out at 11.9 ± 0.17 pg/µg/h; in data set [1] (1 nM test compd.), 14.2 ± 0.13 pg/µg/h; in data set [1] (10 nM test compd.), 27.6 ± 0.16 pg/µg/h. Besides, the “Human Glucagon receptor antagonistic activity, inhibition of cAMP production of Glucagon peptide” value on human glucagon receptor (setting [6]) is listed as 0 pmol/ml/μg prt; on human glucagon receptor (setting [7]), 4 ± 0.05 pmol/ml/μg prt; at human glucagon receptor (setting [8]), 2 ± 0.13 pmol/ml/μg prt; on human glucagon receptor (setting [9]), 2 ± 0.12 pmol/ml/μg prt; on human glucagon receptor (setting [10]), 0 pmol/ml/μg prt. Besides, the “% degradation … with DPP-IV enzyme” value on DPP IV is reported as 77%. The half-life at 2 μM was 9 h on DPP IV, 8 h in data set [2] and 1 h in data set [5]. Also, the “% degradation … with human plasma” value in data set [2] (2 μM, 37° C.) was found to be 80%. The “% degradation … with simulated gastric fluid” value in data set [3] is reported as 13%. Also, the “half-life (t1/2) in simulated gastric fluid” value in data set [3] is recorded as “(8) h”. The “% degradation … with simulated intestinal fluid” value in data set [4] is listed as 50%. For the same compound, the “half-life (t1/2) in simulated intestinal fluid” value in data set [4] is reported as “(6) h”. Further, the “% degradation … with liver microsomes” value in data set [5] amounted to 82%.
Consider `CCc1cc(OC)ccc1-c1ccc(CC(NC(=O)[C@H](CC(=O)O)NC(=O)[C@H](CO)NC(=O)[C@@H](NC(=O)C(C)(Cc2ccccc2F)NC(=O)[C@@H](NC(=O)CNC(=O)[C@H](CCC(N)=O)NC(=O)[C@H](CO)NC(=O)[C@@H](N)Cc2c[nH]cn2)[C@@H](C)O)[C@@H](C)O)C(=O)NC(Cc2ccc(-c3ccccc3C(F)(F)F)cc2)C(N)=O)cc1` (single isomer, unassigned) [compound 24], for which the Insulin secretion was 12.3 ± 0.33 pg/µg/h in data set [1] (0.1 nM test compd.), 14.8 ± 0.16 pg/µg/h in data set [1] (1 nM test compd.) and 28.1 ± 0.22 pg/µg/h in data set [1] (10 nM test compd.). Moreover, the “Human Glucagon receptor antagonistic activity, inhibition of cAMP production of Glucagon peptide” value at human glucagon receptor (setting [6]) came out at 0 pmol/ml/μg prt; at human glucagon receptor (setting [7]), 4 ± 0.09 pmol/ml/μg prt; at human glucagon receptor (setting [8]), 2 ± 0.12 pmol/ml/μg prt; on human glucagon receptor (setting [9]), 0 pmol/ml/μg prt; on human glucagon receptor (setting [10]) it was 0 pmol/ml/μg prt. Besides, the “% degradation … with DPP-IV enzyme” value at DPP IV was determined as 76%. The half-life at 2 μM on DPP IV worked out at 9 h; in data set [2], 8 h; in data set [5], 1 h. Also, the “% degradation … with human plasma” value in data set [2] (2 μM, 37° C.) amounted to 78%. Also, the “% degradation … with simulated gastric fluid” value in data set [3] was 14%. Also, the “half-life (t1/2) in simulated gastric fluid” value in data set [3] is “(8) h”. Besides, in data set [4], the “% degradation … with simulated intestinal fluid” value was 43%. Also, the “half-life (t1/2) in simulated intestinal fluid” value in data set [4] was “(6) h”. In data set [5], the “% degradation … with liver microsomes” value came to 80%.
